# Data taken from the supplement of paper PMC10307832.
# What was measured:
# Experiment in all cases: relative viability (nuclei count vs DMSO), 5 days (fraction); higher = more cells survive
# NCI-H2405 = system: NCI-H2405
# How it was run: (§1)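 Lung cancer cell lines were pin-tool dosed in 1536-well plates on the day after seeding, with either a lone drug or a fixed anchor-drug dose plus five library-drug doses (not always all listed) in √10 steps. Nuclei were counted on 4× images after 5 days. Relative viability is the ratio of treated-well to vehicle-well nuclei counts, with each value a median of duplicate plates.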
# LU99A = system: LU99A
# How it was run: as §1
# NCI-H3122 = system: NCI-H3122
# How it was run: as §1
# NCI-H1666 = system: NCI-H1666
# How it was run: as §1
# HCC-15 = system: HCC-15
# How it was run: as §1
# NCI-H358 = system: NCI-H358
# How it was run: as §1
# NCI-H1975 = system: NCI-H1975
# How it was run: as §1
# HARA = system: HARA
# How it was run: as §1
# NCI-H2228 = system: NCI-H2228
# How it was run: as §1
# NCI-H1792 = system: NCI-H1792
# How it was run: as §1
# NCI-H1623 = system: NCI-H1623
# How it was run: as §1
# NCI-H2347 = system: NCI-H2347
# How it was run: as §1
# NCI-H1793 = system: NCI-H1793
# How it was run: as §1
# NCI-H460 = system: NCI-H460
# How it was run: as §1
# LXF-289 = system: LXF-289
# How it was run: as §1
# PC-3 [JPC-3] = system: PC-3 [JPC-3]
# How it was run: as §1
# NCI-H1944 = system: NCI-H1944
# How it was run: as §1
# NCI-H838 = system: NCI-H838
# How it was run: as §1
# SW 1573 = system: SW 1573
# How it was run: as §1
# NCI-H650 = system: NCI-H650
# How it was run: as §1
# NCI-H1734 = system: NCI-H1734
# How it was run: as §1
# NCI-H661 = system: NCI-H661
# How it was run: as §1
compound,measurement,setting,value
Nc1cccc2c1CN(C1CCC(=O)NC1=O)C2=O (stereo not drawn) [Lenalidomide] + CCNC(=O)c1noc(-c2cc(C(C)C)c(O)cc2O)c1-c1ccc(CN2CCOCC2)cc1 [Luminespib] (partner 0.01 µM),relative viability,NCI-H2405; first compound 0.253 µM,0.665
same,relative viability,NCI-H2405; first compound 0.8 µM,0.76
same,relative viability,NCI-H2405; first compound 2.53 µM,0.757
same,relative viability,NCI-H2405; first compound 8 µM,0.644
same,relative viability,LU99A; first compound 0.253 µM,0.236
same,relative viability,LU99A; first compound 0.8 µM,0.249
same,relative viability,LU99A; first compound 2.53 µM,0.258
same,relative viability,LU99A; first compound 8 µM,0.258
same,relative viability,NCI-H3122; first compound 0.253 µM,0.0887
same,relative viability,NCI-H3122; first compound 0.8 µM,0.0863
same,relative viability,NCI-H3122; first compound 2.53 µM,0.0693
same,relative viability,NCI-H3122; first compound 8 µM,0.102
same,relative viability,NCI-H1666; first compound 0.253 µM,0.977
same,relative viability,NCI-H1666; first compound 2.53 µM,1.02
same,relative viability,NCI-H1666; first compound 8 µM,1.04
same,relative viability,HCC-15; first compound 0.253 µM,0.485
same,relative viability,HCC-15; first compound 0.8 µM,0.303
same,relative viability,HCC-15; first compound 2.53 µM,0.359
same,relative viability,HCC-15; first compound 8 µM,0.363
same,relative viability,NCI-H358; first compound 0.253 µM,0.419
same,relative viability,NCI-H358; first compound 0.8 µM,0.377
same,relative viability,NCI-H358; first compound 2.53 µM,0.437
same,relative viability,NCI-H358; first compound 8 µM,0.576
same,relative viability,NCI-H1975; first compound 0.253 µM,0.194
same,relative viability,NCI-H1975; first compound 0.8 µM,0.235
same,relative viability,NCI-H1975; first compound 2.53 µM,0.251
same,relative viability,NCI-H1975; first compound 8 µM,0.196
same,relative viability,HARA; first compound 0.253 µM,0.679
same,relative viability,HARA; first compound 2.53 µM,0.614
same,relative viability,HARA; first compound 8 µM,1.03
same,relative viability,NCI-H2228; first compound 0.253 µM,0.156
same,relative viability,NCI-H2228; first compound 0.8 µM,0.103
same,relative viability,NCI-H2228; first compound 2.53 µM,0.115
same,relative viability,NCI-H2228; first compound 8 µM,0.189
same,relative viability,NCI-H1792; first compound 0.253 µM,0.357
same,relative viability,NCI-H1792; first compound 2.53 µM,0.449
same,relative viability,NCI-H1792; first compound 8 µM,0.495
same,relative viability,NCI-H1623; first compound 0.253 µM,0.413
same,relative viability,NCI-H1623; first compound 0.8 µM,0.474
same,relative viability,NCI-H1623; first compound 2.53 µM,0.557
same,relative viability,NCI-H1623; first compound 8 µM,0.399
same,relative viability,NCI-H2347; first compound 0.253 µM,0.507
same,relative viability,NCI-H2347; first compound 0.8 µM,0.627
same,relative viability,NCI-H2347; first compound 2.53 µM,0.454
same,relative viability,NCI-H2347; first compound 8 µM,0.249
same,relative viability,NCI-H1793; first compound 0.253 µM,0.173
same,relative viability,NCI-H1793; first compound 2.53 µM,0.167
same,relative viability,NCI-H1793; first compound 8 µM,0.165
same,relative viability,NCI-H460; first compound 0.253 µM,0.0318
same,relative viability,NCI-H460; first compound 0.8 µM,0.0303
same,relative viability,NCI-H460; first compound 2.53 µM,0.035
same,relative viability,NCI-H460; first compound 8 µM,0.0323
same,relative viability,LXF-289; first compound 0.253 µM,0.799
same,relative viability,LXF-289; first compound 0.8 µM,0.686
same,relative viability,LXF-289; first compound 2.53 µM,0.768
same,relative viability,LXF-289; first compound 8 µM,0.725
same,relative viability,PC-3 [JPC-3]; first compound 0.253 µM,0.651
same,relative viability,PC-3 [JPC-3]; first compound 0.8 µM,0.729
same,relative viability,PC-3 [JPC-3]; first compound 2.53 µM,0.616
same,relative viability,PC-3 [JPC-3]; first compound 8 µM,0.572
same,relative viability,NCI-H1944; first compound 0.253 µM,0.675
same,relative viability,NCI-H1944; first compound 0.8 µM,0.777
same,relative viability,NCI-H1944; first compound 2.53 µM,0.871
same,relative viability,NCI-H1944; first compound 8 µM,0.502
same,relative viability,NCI-H838; first compound 0.253 µM,0.338
same,relative viability,NCI-H838; first compound 0.8 µM,0.308
same,relative viability,NCI-H838; first compound 2.53 µM,0.269
same,relative viability,NCI-H838; first compound 8 µM,0.4
same,relative viability,SW 1573; first compound 0.253 µM,0.538
same,relative viability,SW 1573; first compound 0.8 µM,0.198
same,relative viability,SW 1573; first compound 2.53 µM,0.162
same,relative viability,SW 1573; first compound 8 µM,0.366
same,relative viability,NCI-H650; first compound 0.253 µM,0.905
same,relative viability,NCI-H650; first compound 2.53 µM,0.831
same,relative viability,NCI-H650; first compound 8 µM,0.823
same,relative viability,NCI-H1734; first compound 0.253 µM,0.157
same,relative viability,NCI-H1734; first compound 0.8 µM,0.202
same,relative viability,NCI-H1734; first compound 2.53 µM,0.206
same,relative viability,NCI-H1734; first compound 8 µM,0.196
same,relative viability,NCI-H661; first compound 0.253 µM,0.835
same,relative viability,NCI-H661; first compound 0.8 µM,0.864
same,relative viability,NCI-H661; first compound 2.53 µM,0.847
same,relative viability,NCI-H661; first compound 8 µM,0.9
